Source: US7521535B2, “Anti-microbial defensin-related peptides and methods of use” (priority 2006, dated 2009)
“Also recorded” adds a separate entry of the source. Positions of bridges follow the written chain, without caps; N, C: chain ends. Chains are numbered I, II in the order given. No end group written: not given here.

Assays:
[1] = test system: representative Gram-positive and Gram-negative bacteria; experiment: modified broth microdilution assay, summary over strains; type: cell-based; settings: 100 mM NaCl versus no NaCl
Description: All bacterial strains were purchased from either MicroBiologics (St. Cloud, Minn.) or ATCC (Manassas, Va.). Bacteria were grown in trypticase soy broth (TSB) overnight and subcultured in the same broth for 3-4 h at 37° C. in a shaking incubator to the mid log phase. To study the antibacterial spectrum, a modified broth microdilution assay was used as described (26). Briefly, the mid log phase bacteria were washed with 25 mM sodium phosphate buffer, pH 7.4, and suspended in 5% TSB in 25 mM sodium phosphate, pH 7.4, to 5×10^5 CFU/ml with and without 100 mM NaCl. Bacteria (90 μl) were then dispensed in a 96-well plate, followed by addition of peptides (10 μl) serially diluted in 0.01% acetic acid. After overnight incubation at 37° C., the minimum inhibitory concentration (MIC) of each peptide was determined as the lowest concentration that gave no visible bacterial growth.
Refolded rattusin was then used to study its antibacterial activity against representative Gram-positive and Gram-negative bacteria by a modified broth microdilution assay with and without 100 mM NaCl.

[2] = test system: E. coli O157:H7 ATCC 700728; experiment: kinetics of bacterial killing, colony counting assay; type: cell-based; settings: 4 μM peptide; for killing of E. coli: no NaCl, within 2 h
Description: FIG. 4. Kinetics of killing of E. coli O157:H7 in the absence (A) and presence (B) of 100 mM NaCl by rattusin, cryptdin-4 and HD-5. E. coli O157:H7 ATCC 700728 was incubated with 4 μM rattusin, cryptdin-4, HD-5, or an equal volume of 0.01% acetic acid (no peptide) in duplicate in 25 mM sodium phosphate buffer, pH 7.4, 1% TSB with and without 100 mM NaCl for 10, 30, 60, 120 and 240 min. Surviving bacteria were plated and counted. Data shown are means ± SEM of two independent experiments.
(§1) To study the kinetics of bacterial killing, a standard colony counting assay was used as described (26). Rattusin and cryptin-4 were incubated with 90 μl of 5×10^5 CFU/ml Staphylococcus aureus ATCC 25923 at the concentration of 2 μM each or with E. coli O157:H7 at the concentration of 4 μM each in 25 mM sodium phosphate buffer, pH 7.4, with and without 100 mM NaCl. The reaction was incubated at 37° C. for 10, 30, 60, 120 and 240 min and diluted rapidly with ice-cold PBS and plated immediately. Plates were incubated at 37° C. for 14-18 hours and viable bacteria were counted.

[3] = test system: S. aureus ATCC 25923; experiment: as above; type: cell-based, Staphylococcus aureus; settings: 2 μM peptide
Description: FIG. 5. Kinetics of killing of S. aureus in the absence (A) and presence (B) of 100 mM NaCl by rattusin, cryptdin-4 and HD-5. S. aureus ATCC 25923 was incubated with 2 μM rattusin, cryptdin-4, HD-5, or an equal volume of 0.01% acetic acid (no peptide) in duplicate in 25 mM sodium phosphate buffer, pH 7.4, 1% TSB with and without 100 mM NaCl for 10, 30, 60, 120 and 240 min. Surviving bacteria were plated and counted. Data shown are means ± SEM of two independent experiments.
as §1

[4] = test system: E. coli O157:H7; experiment: effect of salinity on antibacterial activity; type: cell-based; settings: 4 μM peptide, 4 h, up to 200 mM NaCl
Description: (§2) FIG. 6. Effect of salinity on the antibacterial activity of rattusin against S. aureus (A) and E. coli O157:H7 (B). S. aureus and E. coli were incubated with 2 and 4 μM of rattusin, or an equal volume of 0.01% acetic acid (no peptide) in 25 mM sodium phosphate buffer, pH 7.4, 1% TSB with increasing concentrations of NaCl, for 4 h. Surviving bacteria were plated and counted. Data shown are means ± SEM of two independent experiments.

[5] = test system: S. aureus; experiment: effect of salinity on antibacterial activity; type: cell-based; settings: 2 μM peptide, 4 h, up to 200 mM NaCl
Description: as §2

[6] = test system: E. coli O157:H7; experiment: effect of Mg2+ on antibacterial activity; type: cell-based; settings: 4 μM peptide, 0, 1, 2 and 5 mM MgCl2, 4 h
Description: (§3) FIG. 7. Effect of Mg^2+ on the antibacterial activity of rattusin and cryptdin-4 against S. aureus (A) and E. coli O157:H7 (B). S. aureus or E. coli were incubated with rattusin, cryptdin-4, or an equal volume of 0.01% acetic acid (no peptide) in 25 mM sodium phosphate buffer, containing 1% TSB with 0, 1, 2 and 5 mM MgCl2, pH 7.4, for 4 h. Surviving bacteria were plated and counted. Both peptides were used at identical concentrations for each bacterial strain (2 and 4 μM against S. aureus and E. coli, respectively). Data shown are means ± SEM of 2-3 independent experiments.
(§4) The effect of Mg^2+ on the antibacterial activity was studied by incubating rattusin and cryptdin-4 for 4 h with 90 μl of 5×10^5 CFU/ml Staphylococcus aureus at a concentration of 2 μM each or with E. coli O157:H7 at a concentration of 4 μM each in 1% TSB, 25 mM sodium phosphate buffer, containing 0, 1, 2 and 5 mM of MgCl2, pH 7.4.

[7] = test system: S. aureus; experiment: effect of Mg2+ on antibacterial activity; type: cell-based, Staphylococcus aureus; settings: 2 μM peptide, 0, 1, 2 and 5 mM MgCl2, 4 h
Description: as §3, §4

[8] = test system: Caco-2 cells; experiment: cytotoxicity assay, alamarBlue dye; type: cell-based, human; settings: 100 μM peptide, 24 h, DMEM with and without 10% FBS
Description: FIG. 8. Absence of cytotoxicity of rattusin and cryptdin-4 to Caco-2 cells. Cells were incubated with 100 μM of rattusin, cryptdin-4 or fowlicidin-1 for 24 h in DMEM with and without 10% fetal bovine serum for 24 hours. Cell viability was measured with an alamarBlue dye-based method. Data are representative of two independent experiments done in duplicate.
Cytotoxicity against human colon adenocarcinoma (CACO-2) cell line (ATCC, Manassas, Va.) was measured using alamarBlue dye (Biosource, Camarillo, Calif.) as described previously (26, 27). Briefly, CACO-2 cells were seeded into 96 well plate at 5×10^4 in Dulbecco's modified Eagle's medium (DMEM) with 10% FBS and were grown overnight. The next day cells were washed once with DMEM followed by the addition of fresh DMEM with and without 10% FBS and 100 μM of rattusin or cryptdin-4 or fowlicidin-1. […] The plate was read with excitation at 545 nm and emission at 590 nm. The percentage of cell death was calculated as [1−(Fpeptide−Fbackground)/(Facetic acid−Fbackground)]×100, where Fpeptide is the fluorescence of cells exposed to 100 μM peptide, Facetic acid is the fluorescence of cells exposed to 0.01% acetic acid only, and Fbackground is the background fluorescence of 10% alamarBlue dye in cell culture medium without cells.

[9] = test system: bacteria; experiment: preliminary antibacterial studies, reduced versus refolded rattusin; type: cell-based; settings: data not shown
Source text: Similar to several α- and β-defensins (49-52), the central cysteine-rich motif of rattusin is flanked by long flexible N- and C-terminal tails, which are primarily composed of charged and uncharged polar residues (Table 2). The impact of N- and C-terminal tails and five cysteines of rattusin on its antibacterial, cytotoxic, chemotactic, and immuno-modulatory functions is investigated.

Q: For “I: LRVRRTLQCSCRRVCRNTCSCIRLSRSTYAS / II: LRVRRTLQCSCRRVCRNTCSCIRLSRSTYAS (disulfide I:9-II:21, I:11-II:19, I:15-II:15, I:19-II:11, I:21-II:9) [Rattusin]”, which “antibacterial activity in the presence of 100 mM NaCl” value [1] is on record?
A: remained largely unchanged

Q: And the “killing of E. coli in the presence of 100 mM NaCl” value [2]?
A: slightly delayed with a complete killing occurring at 4 h

Q: And the “killing of E. coli” value [2]?
A: three logs

Q: What about the “killing of S. aureus in the presence of 100 mM NaCl” value [3] of the same molecule?
A: largely unaffected

Q: What about the “antibacterial activity with increasing concentrations of NaCl” value [4] of the same molecule?
A: maintained antibacterial activity

Q: What about the “antibacterial activity with increasing concentrations of NaCl” value [5] of the same molecule?
A: maintained antibacterial activity

Q: What about the “activity against E. coli in the presence of MgCl2” value [6] of the same molecule?
A: largely unaffected

Q: And the “effect of Mg2+ on activity against S. aureus” value [7]?
A: did not inhibit; also recorded: potentiated

Q: And the “cytotoxicity to Caco-2 cells” value [8]?
A: no cytotoxicity

Q: “LRVRRTLQCSCRRVCRNTCSCIRLSRSTYAS [reduced peptide, rattusin in the reduced form, without disulfide bonds]” was tested. Which “antibacterial activity in high salt” value [9] did it give?
A: lost significant activities

B1: HD-5 (peptide, UniProt Q01523 20-94, looked up)
Defensin alpha 5: ESLQERADEATTQKQSGEDNQDLAISFAGNGLSALRTSGSQARATCYCRTGRCATRESLSGVCEISGRLYRLCCR
modifications: Defensin-5
Q: How did the “killing of E. coli in the presence of 100 mM NaCl” value [2] turn out when B1 was run?
A: completely inactivated

Q: And the “killing of E. coli” value [2]?
A: three logs

Q: And the “killing of S. aureus in the presence of 100 mM NaCl” value [3]?
A: significantly inhibited
